Experimental findings from PMC10108345, “Differentiating Inhibition Selectivity and Binding Affinity of Isocitrate Dehydrogenase 1 Variant Inhibitors” (Journal of Medicinal Chemistry, 2023) are described below.

The target in assay [1] is T1, IDH1 R132H (Homo sapiens, UniProt O75874, R132H).
T1 construct: made in house; host or cells: Escherichia coli BL21(DE3) pLyS
The assay is described as follows: Ligand-observed 1H NMR (CPMG-edited, 700 MHz) binding, IDH1 R132H. The following applies: line broadening, 10 μM inhibitor, 50 mM tris-D11-HCl pH 7.5. As for the experimental part: (§1) Additional solvent presaturation was applied for 2 s. Samples contained 160 μL of 10 μM compound (0.2% DMSO) in 50 mM tris-D11-HCl, pH 7.5 in 90% H2O/10% D2O (v/v). […] 200 or 400 scans per IDH concentration were recorded, and signals corresponding to the compound were integrated and processed using TopSpin 3.6.1 software.

The target in assay [2] is T2, wt IDH1 (Homo sapiens, UniProt O75874).
T2 construct: made in house; host or cells: Escherichia coli BL21(DE3) pLyS
T2 sequence (O75874 whole entry): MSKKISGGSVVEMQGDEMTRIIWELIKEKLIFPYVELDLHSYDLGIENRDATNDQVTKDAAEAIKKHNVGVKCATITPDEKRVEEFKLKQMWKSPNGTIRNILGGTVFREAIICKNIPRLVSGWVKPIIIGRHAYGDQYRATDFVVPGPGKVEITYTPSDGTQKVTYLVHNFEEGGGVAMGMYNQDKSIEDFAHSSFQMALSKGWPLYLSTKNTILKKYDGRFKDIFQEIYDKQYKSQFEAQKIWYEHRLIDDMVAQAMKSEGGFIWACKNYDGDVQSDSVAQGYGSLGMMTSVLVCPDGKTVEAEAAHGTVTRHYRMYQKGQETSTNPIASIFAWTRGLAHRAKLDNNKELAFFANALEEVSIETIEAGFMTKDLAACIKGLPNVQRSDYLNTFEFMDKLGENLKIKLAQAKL
Put plainly: Ligand-observed 1H NMR (CPMG-edited, 700 MHz) binding, wt IDH1. As to conditions: line broadening, 10 μM inhibitor, 50 mM tris-D11-HCl pH 7.5. As for the experimental part: as §1

Assay [3] deals with T1, IDH1 R132H. Put plainly: Isothermal titration calorimetry (ITC), IDH1 R132H. It counts as binding. As to conditions: 40 μM IDH1, 50 mM tris-HCl pH 7.5, 25 °C. As for the experimental part: ITC was conducted using a Malvern MicroCal PEAQ-ITC Automated machine (Malvern Panalytical). In general, IDH1 was prepared in 50 mM tris–HCl, pH 7.5, and the compounds were dissolved in the same buffer. 400 μL of cell solution containing 40 μM IDH1 [4% (v/v) DMSO] and 200 μL of the titrant containing 200 or 400 μM compound [2% or 4% (v/v) DMSO] were transferred to an ITC plate (Malvern Panalytical WEL020854-010). […] The injection setup consisted of 19 injections, with 1 initial injection of 0.4 μL and 18 subsequent injections of 2.0 μL each with 150 s between the injections. Thermodynamic parameters were obtained using MicroCal PEAQ-ITC analysis software.
For orientation: ITC needs no label: the signal is the heat of the interaction.

Assay [4] has as its target T2, wt IDH1. The assay is described as follows: Non-denaturing MS binding, wt IDH1. As for the experimental part: Non-denaturing mass spectra were obtained using a quadrupole time-of-flight mass spectrometer (Synapt HD MS, Waters, Manchester, UK).[44],[45] […] Protein concentrations were measured using a Nanodrop spectrometer (Thermo Scientific NanoDrop One). Compounds were dissolved in MeOH to avoid DMSO interference with mass spectra. IDH1 (20 μL of 50 μM final) and the compound of interest (1–4% (v/v) MeOH) in 200 mM ammonium acetate at pH 7.5 were pipetted into wells of a sample plate of an automated chip-based nano-electrospray ion source (TriVersa Nanomate, Advion, Ithaka, NY, USA). Compounds were serially diluted in buffer and mixed with IDH1 diluted in buffer. The mixture was sprayed through a nozzle in a Nanomate chip at a spray voltage of 1.8–2.0 kV (spray backing gas pressure 0.8–1.0 psi, inlet pressure 3.8 mbar). […] Data collection and analyses used Waters MassLynx software. Mass spectra were calibrated externally using CsI solution. KD values were calculated using eq 2 as reported[46] at each compound concentration and are reported as an average across multiple concentrations. For inhibitors with a binding stoichiometry of two inhibitors/IDH dimer, the inhibitor-bound protein peak intensity used was a sum of first and second inhibitor-bound protein peak intensities. Data for the IDH1 dimer m/z = 20^+ charge state are shown. For clarity, only 2× NADPH bound protein peaks are annotated.

Assay [5] concerns the target T2, wt IDH1. Put plainly: Absorbance turnover assay (NADPH, 340 nm), wt IDH1-catalyzed conversion of isocitrate to 2OG. As to conditions: wt IDH1 (2 nM), isocitrate to 2OG; 100 mM tris-HCl, 10 mM MgCl2, pH 8.0; read-out: IC50/nM wt IDH1. It counts as biochemical. As for the experimental part:
(Figure 3, Scheme 1). […] We employed ^1H NMR (700 MHz) spectroscopy to simultaneously monitor NADPH, NADP^+, 2OG, and 2HG levels (Figure S3) in order to validate observations from the absorbance assays.
IDH1 activities were measured spectrophotometrically by monitoring changes in NADPH absorbance at 340 nm.[10] […] The difference in absorbance, ΔA340, in the linear range of the reaction profile was converted to % residual activity using a DMSO control as the 100% residual activity reference. […] Experiments were performed in (at least) triplicate. The standard assay buffer for IDH1 consists of 100 mM tris–HCl, 10 mM MgCl2, 0.005% (v/v) Tween 20, pH 8.0, 0.2 mM DTT, and 0.1 mg/mL BSA. In general, compounds [25 μL, 0.4% (v/v) DMSO] were pre-incubated with IDH1 (25 μL) for 12 min, followed by addition of DL-isocitrate/2OG (25 μL) and NADP^+/NADPH (25 μL) to initiate the reaction. The substrate/cofactor concentrations were optimized by determining KM values for substrates/cofactors as described.[10]

T1 sequence (O75874 whole entry R132H): as the sequence (O75874 whole entry) above, with R132H counted along it

The Kd is the free concentration of one partner at which half of the binding sites on the other are occupied at equilibrium, for simple one-to-one binding. Read a high Kd as lower affinity. For the molecule `Cc1ccccc1C(C(=O)NC1CCCCC1)N(C(=O)Cn1ccnc1C)c1cccc(F)c1` (stereo not drawn) [AGI-5198], the Kd was 8.6 µM on IDH1 R132H [1]; 9.1 µM at wt IDH1 [2]; more than 400 µM at IDH1 R132H [3]; 608 µM at wt IDH1 [4] (IDH 50 μM, 200 mM ammonium acetate pH 7.5). Also, on wt IDH1 [4] (Figure S7a), the “stoichiometry, inhibitors per IDH1 dimer, wt IDH1” value amounted to 1. For the same molecule, the IC50 on wt IDH1 [5] was more than 10000 nM.
